Reference: ChEMBL document CHEMBL1201862, “PubChem BioAssay data set” (2004)
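A five-concentration, 48-hour dose response in 96-well plates underlies each endpoint, interpolated linearly between surrounding concentrations. Abbreviation: GI50, concentration required for 50% inhibition of growth.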 Calls of active or inactive are those of the source. No stated cut-off is given here; in the data, active = GI50 up to about 1.1 µM and inactive = higher.

Columns and labels:
Experiment in all cases: DTP human tumour cell line panel, 48 h
[1] = system: UO-31
[2] = system: HCT-15
[3] = system: HOP-62
[4] = system: EKVX
[5] = system: RPMI-8226
[6] = system: M14
[7] = system: U-251
[8] = system: SK-MEL-28
[9] = system: CCRF-CEM
[10] = system: LOX IMVI
[11] = system: CAKI-1
[12] = system: UACC-257
[13] = system: HL-60
[14] = system: IGROV-1
[15] = system: OVCAR-5

SMILES	GI50 [1]	GI50 [2] [µM]	GI50 [3]	GI50 [4]	GI50 [5]	GI50 [6]	GI50 [7]	GI50 [8]	GI50 [9]	GI50 [10]	GI50 [11]	GI50 [12]	GI50 [13]	GI50 [14]	GI50 [15]
CCCCCCCCCC(=O)OCC1OC(n2cc(F)c(=O)[nH]c2=O)C(NC(=O)OCc2ccccc2)C(OC(=O)CCCCCCCCC)C1O (stereo not given)	40.2 µM (inactive)	35.2	> 100 µM (inactive)	31.6 µM (inactive)	21.4 µM (inactive)	52.2 µM (inactive)	15 µM (inactive)	42.1 µM (inactive)	21.8 µM (inactive)	16.6 µM (inactive)	> 100 µM (inactive)	61.8 µM (inactive)	24.1 µM (inactive)	> 100 µM (inactive)	–
CCCCc1c2c([n+]([O-])c3c1CCCC3)CCCC2	61.1 µM (inactive)	21.6	> 100 µM (inactive)	> 100 µM (inactive)	50.8 µM (inactive)	> 10 µM (inactive)	> 100 µM (inactive)	32.8 µM (inactive)	19.3 µM (inactive)	> 100 µM (inactive)	–	40.6 µM (inactive)	38.1 µM (inactive)	43.1 µM (inactive)	–
N#Cc1c2ccccc2c(Cc2ccc3c(c2)OCCOCCOCCOCCOCCO3)c2ccccc12	3.85 µM (inactive)	5.57	10.3 µM (inactive)	16.3 µM (inactive)	3.11 µM (inactive)	5.37 µM (inactive)	9.44 µM (inactive)	3.28 µM (inactive)	3.21 µM (inactive)	6.04 µM (inactive)	10.1 µM (inactive)	9.27 µM (inactive)	1.85 µM (inactive)	4.34 µM (inactive)	16.4 µM (inactive)
CC(=O)OC1OC2C(NC(=O)OC(C)(C)C)C1CC2(OCc1ccccc1)OCc1ccccc1 (stereo not given)	13.1 µM (inactive)	32.3	28.2 µM (inactive)	34.7 µM (inactive)	11.6 µM (inactive)	20.5 µM (inactive)	14.4 µM (inactive)	20.9 µM (inactive)	18.3 µM (inactive)	> 10 µM (inactive)	32.4 µM (inactive)	19.1 µM (inactive)	12.8 µM (inactive)	27 µM (inactive)	28.3 µM (inactive)
CCOC(=O)C(=O)Nc1c(C)cccc1C	> 100 µM (inactive)	> 100	> 100 µM (inactive)	> 100 µM (inactive)	> 100 µM (inactive)	> 100 µM (inactive)	> 100 µM (inactive)	> 100 µM (inactive)	–	> 100 µM (inactive)	> 100 µM (inactive)	> 100 µM (inactive)	–	> 100 µM (inactive)	> 100 µM (inactive)
Cc1n[nH]c(=S)n(C)c1=S	> 100 µM (inactive)	> 100	> 100 µM (inactive)	56.1 µM (inactive)	> 100 µM (inactive)	> 100 µM (inactive)	> 100 µM (inactive)	> 100 µM (inactive)	> 100 µM (inactive)	> 100 µM (inactive)	–	–	–	> 100 µM (inactive)	> 100 µM (inactive)
Cc1cc([N+](=O)[O-])ccc1Sc1c2ccccc2nc2cc(Cl)ccc12	45.2 µM (inactive)	51.4	73.5 µM (inactive)	40.6 µM (inactive)	–	40.8 µM (inactive)	27.8 µM (inactive)	> 100 µM (inactive)	28.1 µM (inactive)	24.9 µM (inactive)	26.2 µM (inactive)	73.6 µM (inactive)	5.78 µM (inactive)	46.2 µM (inactive)	56.2 µM (inactive)
CC1=C(C(=O)CC(=O)C(=O)Nc2ccccc2C)Sc2ccccc2N1	> 100 µM (inactive)	> 100	> 100 µM (inactive)	> 100 µM (inactive)	> 45 µM (inactive)	> 100 µM (inactive)	> 61.2 µM (inactive)	> 100 µM (inactive)	> 57.1 µM (inactive)	> 42.4 µM (inactive)	> 100 µM (inactive)	> 100 µM (inactive)	> 60.5 µM (inactive)	> 100 µM (inactive)	> 100 µM (inactive)
FC(F)(F)c1ccc(C2SCc3nc4ccccc4n32)cc1 (stereo not given)	> 100 µM (inactive)	–	–	29.7 µM (inactive)	12.4 µM (inactive)	–	> 100 µM (inactive)	> 100 µM (inactive)	31.4 µM (inactive)	–	> 10 µM (inactive)	6.56 µM (inactive)	3.13 µM (inactive)	14.2 µM (inactive)	15.5 µM (inactive)
CC1=C(c2nc3ccccc3s2)C(=O)OC1(C)C	> 100 µM (inactive)	> 100	> 100 µM (inactive)	> 100 µM (inactive)	> 100 µM (inactive)	> 100 µM (inactive)	> 100 µM (inactive)	> 100 µM (inactive)	> 100 µM (inactive)	> 100 µM (inactive)	> 100 µM (inactive)	> 100 µM (inactive)	–	–	> 100 µM (inactive)
